Data set [1] relates to rabbit aortic rings. Put plainly: Assay B: In Vitro Vascular Smooth Muscle Response for AII (antagonist activity in rabbit aortic rings). It counts as cell-based. The following applies: Oryctolagus cuniculus, test antagonist at 10^-5 M, AII contraction, read-out: Assay B pA2 (converted). On the procedure:
Assay B: In Vitro Vascular Smooth Muscle-Response for AII
The compounds of the invention were tested for antagonist activity in rabbit aortic rings. Male New Zealand white rabbits (2-2.5 kg) were sacrificed using an overdose of pentobarbital and exsanguinated via the carotid arteries. The thoracic aorta was removed, cleaned of adherent fat and connective tissue and then cut into 3-mm ring segments. The endothelium was removed from the rings by gently sliding a rolled-up piece of filter paper into the vessel lumen. The rings were then mounted in a water-jacketed tissue bath, maintained at 37° C., between moveable and fixed ends of a stainless steel wire with the moveable end attached to an FT03 Grass transducer coupled to a Model 7D Grass Polygraph for recording isometric force responses. The bath was filled with 20 ml of oxygenated (95% oxygen/5% carbon dioxide) Krebs solution of the following composition (mM): 130 NaCl, 15 NaHCO3, […], 1.2 NaH2PO4, 1.2 MgSO4, 2.5 CaCl2, and 11.4 glucose. The preparations were equilibrated for one hour before approximately one gram of passive tension was placed on the rings. Angiotensin II concentration-response curves were then recorded (3×10^−10 to 1×10^−5 M). Each concentration of AII was allowed to elicit its maximal contraction, and then AII was washed out repeatedly for 30 minutes before rechallenging with a higher concentration of AII. Aorta rings were exposed to the test antagonist at 10^−5 M for 5 minutes before challenging with AII. Adjacent segments of the same aorta ring were used for all concentration-response curves in the presence or absence of the test antagonist. The effectiveness of the test compound was expressed in terms of pA2 values and were calculated according to H. O. Schild [Br. J. Pharmacol. Chemother., 2,189-206 (1947)]. The PA2 value is the concentration of the antagonist which increases the EC50 value for AII by a factor of two. Each test antagonist was evaluated in aorta rings from two rabbits.

Data set [2] addresses smooth muscle angiotensin II receptor. As to the kind of experiment: Assay A: Angiotensin II Binding Activity (125I-angiotensin II displacement, rat uterine membrane preparation). The following applies: 50% displacement of specifically bound 125I-AII, rat uterine membranes, 25° C., 60 min. On the procedure: Assay A: Angiotensin II Binding Activity
Compounds of the invention were tested for ability to bind to the smooth muscle angiotensin II receptor using a rat uterine membrane preparation. […] Other chemicals were obtained from Sigma Chemical Co. This assay was carried out according to the method of Douglas et al [Endocrinology, 106, 120-124 (1980)]. Rat uterine membranes were prepared from fresh tissue. All procedures were carried out at 4° C. Uteri were stripped of fat and homogenized in phosphate-buffered saline at pH 7.4 containing 5 mM EDTA. The homogenate was centrifuged at 1500×g for 20 min., and the supernatant was recentrifuged at 100,000×g for 60 min. The pellet was resuspended in buffer consisting of 2 mM EDTA and 50 mM Tris-HCl (pH 7.5) to a final protein concentration of 4 mg/ml. Assay tubes were charged with 0.25 ml of a solution containing 5 mM MgCl2, 2 mM EDTA, 0.5% bovine serum albumin, 50 mM Tris-HCl, pH 7.5 and […] (approximately 10^5 cpm) in the absence or in the presence of unlabelled ligand. The reaction was initiated by the addition of membrane protein and the mixture was incubated at 25° C. for 60 min. The incubation was terminated with ice-cold 50 mM Tris-HCl (pH 7.5) and the mixture was filtered to separate membrane-bound labelled peptide from the free ligand. The incubation tube and filter were washed with ice-cold buffer. Filters were assayed for radioactivity in a Micromedic gamma counter. Nonspecific binding was defined as binding in the presence of 10 μM of unlabelled AII. Specific binding was calculated as total binding minus nonspecific binding. […] Binding data were analyzed by a nonlinear least-squares curve fitting program.

Data set [3] deals with pressor response to AII. As to the kind of experiment: Assay C: In Vivo Intragastric Pressor Assay Response for AII Antagonists. More on the design: species or system rat. The following applies: for Assay C Duration: Dose: 3 mg/kg (i.g.), Sprague-Dawley rats, AII challenges up to 180 minutes after gavage; for inhibition in vivo at 3 mg/kg: Rattus norvegicus, po. How it is done:
Assay C: In Vivo Intragastric Pressor Assay Response for AII Antagonists
Male Sprague-Dawley rats weighing 225-300 grams were anesthetized with methohexital (30 mg/kg, i.p.) and catheters were implanted into the femoral artery and vein. The catheters were tunneled subcutaneously to exit dorsally, posterior to the head and between the scapulae. The catheters were filled with heparin (1000 units/ml of saline). The rats were returned to their cage and allowed regular rat chow and water ad libitum. After full recovery from surgery (3-4 days), rats were placed in Lucite holders and the arterial line was connected to a pressure transducer. Arterial pressure was recorded on a Gould polygraph (mmHg). Angiotensin II was administered as a 30 ng/kg bolus via the venous catheter delivered in a 50 μl volume with a 0.2 ml saline flush. The pressor response in mm Hg was measured by the difference from pre-injection arterial pressure to the maximum pressure achieved. The AII injection was repeated every 10 minutes until three consecutive injections yielded responses within 4 mmHg of each other. These three responses were then averaged and represented the control response to AII. The test compound was suspended in 0.5% methylcellulose in water and was administered by gavage. The volume administered was 2 ml/kg body weight. The standard dose was 3 mg/kg. Angiotensin II bolus injections were given at 30, 45, 60, 75, 120, 150, and 180 minutes after gavage. The pressor response to AII was measured at each time point. The rats were then returned to their cage for future testing. A minimum of 3 days was allowed between tests. Percent inhibition was calculated for each time point following gavage by the following formula: [(Control Response−Response at time point)/Control Response]×100.

The mark [4] stands for this setting: first value of the pair (aorta rings from two rabbits).
[5] abbreviates: second value of the pair (aorta rings from two rabbits).

As usually defined, the melting point is the temperature, or range, at which the solid turns liquid. The term IC50 denotes the point on the concentration scale where inhibition reaches its midpoint. Higher therefore signals weaker potency in that assay. A word on the inhibition in vivo: it is how much of the control response was suppressed.

Like-named read-outs stand apart in the source and are kept apart here.

In turn, `CCCCc1cn(CCC)c(=O)n1Cc1ccc(-c2ccccc2-c2nnn[nH]2)nc1` [Example 12, 1-propyl-4-butyl-1,3-dihydro-3-[[6-[2-(1H-tetrazol-5-yl)phenyl]-3-pyridinyl]methyl]-2H-imidazol-2-one] yielded a melting point of 164 to 165 °C. In data set [1] (setting [4]), the Kb was 20.9 nM. Moreover, the Kb in data set [1] (setting [5]) was 5.5 nM. Further, in data set [2], the IC50 stood at 31 nM.

Compound `CCCCc1cn(CCCC)c(=O)n1Cc1ccc(-c2cccnc2-c2nnn[nH]2)cc1` [Example 43, 1,4-dibutyl-1,3-dihydro-3-[[4-[2-(1H-tetrazol-5-yl)-3-pyridinyl]phenyl]methyl]-2H-imidazol-2-one] came in with a melting point of 178 to 179.5 °C. For the same compound, the Kb in data set [1] (setting [4]) is 28.2 nM. Further, the Kb in data set [1] (setting [5]) is 21.4 nM. In addition, the IC50 in data set [2] was 89 nM.

In the case of `CCCCc1cn(CCCC)c(=O)n1Cc1ccc(-c2ncccc2-c2nnn[nH]2)cc1` [Example 40, 1,4-dibutyl-1,3-dihydro-3-[[4-[3-(1H-tetrazol-5-yl)-2-pyridinyl]phenyl]methyl]-2H-imidazol-2-one], the melting point fell in the range of 178 to 179.5 °C. Besides, the 50% inhibitory concentration (IC50) in data set [2] worked out at 91 nM.

For the compound `CCCCc1cn(-c2c(F)cccc2F)c(=O)n1Cc1ccc(-c2ccccc2-c2nnn[nH]2)nc1` [Example 36, 1-(2,6-difluorophenyl)-4-butyl-1,3-dihydro-3-[[6-[2-(1H-tetrazol-5-yl)phenyl]-3-pyridinyl]methyl]-2H-imidazol-2-one], the melting point was 164.5 to 165.5 °C (dec.). In data set [3], the “Assay C Duration” value stood at 120 min and the inhibition in vivo at 3 mg/kg came to 75%. In data set [2], the half-inhibitory concentration (IC50) is 7 nM.

On to `CCCCc1cn(CCCC)c(=O)n1Cc1ccc(-c2ccncc2-c2nnn[nH]2)cc1` [Example 42, 1,4-dibutyl-1,3-dihydro-3-[[4-[3-(1H-tetrazol-5-yl)-4-pyridinyl]phenyl]methyl]-2H-imidazol-2-one], for which the melting point is 176 to 178 °C (dec.). The same compound showed a 50% inhibitory concentration (IC50) in data set [2] of 93 nM.

On to `CCCCc1cn(CC)c(=O)n1Cc1ccc(-c2ccccc2-c2nnn[nH]2)nc1` [Example 11, 1-ethyl-4-butyl-1,3-dihydro-3-[[6-[2-(1H-tetrazol-5-yl)phenyl]-3-pyridinyl]methyl]-2H-imidazol-2-one], for which the melting point is 205 °C (dec.). Moreover, the Kb in data set [1] (setting [4]) was 3.63 nM. Also, the Kb in data set [1] (setting [5]) was 9.33 nM. Further, in data set [2], the IC50 came out at 34 nM.

In the case of `CCCCc1cn(-c2c(Cl)cccc2Cl)c(=O)n1Cc1ccc(-c2ccccc2-c2nnn[nH]2)nc1` [Example 37, 1-(2,6-dichlorophenyl)-4-butyl-1,3-dihydro-3-[[6-[2-(1H-tetrazol-5-yl)phenyl]-3-pyridinyl]methyl]-2H-imidazol-2-one], the melting point was in the range of 212 to 212.5 °C. For the same compound, in data set [3], the “Assay C Duration” value was greater than 180 min and 3 mg/kg produced 25% inhibition in vivo. In data set [2], this compound gave an IC50 of 4.8 nM.

`CCCCc1cn(CCCC)c(=O)n1Cc1ccc(-c2cnccc2-c2nnn[nH]2)cc1` [Example 41, 1,4-dibutyl-1,3-dihydro-3-[[4-[4-(1H-tetrazol-5-yl)-3-pyridinyl]phenyl]methyl]-2H-imidazol-2-one] returned a melting point of 128 to 130 °C. The compound also registered an IC50 in data set [2] of 160 nM.

With `CCCCn1cc(C2CCCC2)n(Cc2ccc(-c3ccccc3-c3nnn[nH]3)nc2)c1=O` [Example 8, 1-butyl-4-cyclopentyl-1,3-dihydro-3-[[6-[2-(1H-tetrazol-5-yl)phenyl]-3-pyridinyl]methyl]-2H-imidazol-2-one], the melting point is 195 to 196 °C (dec.). The half-maximal inhibitory concentration (IC50) in data set [2] worked out at 140 nM.

As to `CCCCc1cn(CCC2=CCCC2)c(=O)n1Cc1ccc(-c2ccccc2-c2nnn[nH]2)nc1` [Example 28, 1-[2-(cyclopenten-1-yl)ethyl]-4-butyl-1,3-dihydro-3-[[6-[2-(1H-tetrazol-5-yl)phenyl]-3-pyridinyl]methyl]-2H-imidazol-2-one], in data set [3], the “Assay C Duration” value stood at 180 min and the inhibition in vivo at 3 mg/kg worked out at 15%. The Kb in data set [1] (setting [4]) was 1.41 nM. The Kb in data set [1] (setting [5]) was 5.62 nM. The same compound returned an IC50 in data set [2] of 23 nM.

Regarding `CCCCc1cn(C)c(=O)n1Cc1ccc(-c2ccccc2-c2nnn[nH]2)nc1` [Example 10, 1-methyl-4-butyl-1,3-dihydro-3-[[6-[2-(1H-tetrazol-5-yl)phenyl]-3-pyridinyl]methyl]-2H-imidazol-2-one], the melting point was 184 to 185 °C (dec.). For the same compound, in data set [1] (setting [4]), the Kb was 22.9 nM. Moreover, the Kb in data set [1] (setting [5]) was 44.7 nM. The half-inhibitory concentration (IC50) in data set [2] was 47 nM.

Take `CCCCc1cn(CCC(C)(C)C)c(=O)n1Cc1ccc(-c2ccccc2-c2nnn[nH]2)nc1` [Example 19, 1-(3,3-dimethylbutyl)-4-butyl-1,3-dihydro-3-[[6-[2-(1H-tetrazol-5-yl)phenyl]-3-pyridinyl]methyl]-2H-imidazol-2-one]: in data set [3], the “Assay C Duration” value was greater than 180 min and the inhibition in vivo at 3 mg/kg worked out at 50%. Moreover, the Kb in data set [1] (setting [4]) is 3.72 nM. Also, the Kb in data set [1] (setting [5]) was 4.37 nM. The half-maximal inhibitory concentration (IC50) in data set [2] is 9.2 nM.

Consider `CCCCc1cn(C(C)(C)C)c(=O)n1Cc1ccc(-c2ccccc2-c2nnn[nH]2)nc1` [Example 17, 1-tertbutyl-4-butyl-1,3-dihydro-3-[[6-[2-(1H-tetrazol-5-yl)phenyl]-3-pyridinyl]methyl]-2H-imidazol-2-one], for which, in data set [3], the “Assay C Duration” value amounted to 180 min and the inhibition in vivo at 3 mg/kg turned out to be 10%. Moreover, the Kb in data set [1] (setting [4]) is 1.66 nM. In addition, the Kb in data set [1] (setting [5]) was 2.34 nM. Further, the 50% inhibitory concentration (IC50) in data set [2] was determined as 17 nM.

Turning to `CCCCc1cn(C(C)C)c(=O)n1Cc1ccc(-c2ccccc2-c2nnn[nH]2)nc1` [Example 16, 1-isopropyl-4-butyl-1,3-dihydro-3-[[6-[2-(1H-tetrazol-5-yl)phenyl]-3-pyridinyl]methyl]-2H-imidazol-2-one], in data set [3], the “Assay C Duration” value was greater than 180 min and the inhibition in vivo at 3 mg/kg amounted to 45%. Also, the Kb in data set [1] (setting [4]) is 3.8 nM. Also, the Kb in data set [1] (setting [5]) is 1.7 nM. Also, in data set [2], the IC50 is 20 nM.

In turn, `CCCCc1cn(CC(C)C)c(=O)n1Cc1ccc(-c2ccccc2-c2nnn[nH]2)nc1` [Example 13, 1-isobutyl-4-butyl-1,3-dihydro-3-[[6-[2-(1H-tetrazol-5-yl)phenyl]-3-pyridinyl]methyl]-2H-imidazol-2-one] returned a melting point of 160 to 161.5 °C. In data set [1] (setting [4]), the Kb is 9.33 nM. Also, the Kb in data set [1] (setting [5]) was 2.51 nM. The half-inhibitory concentration (IC50) in data set [2] amounted to 14 nM.

Values taken from US6492397B1, “N-arylheteroarylalkyl imidazol-2-one compounds for treatment of arteriosclerosis” (Pharmacia Corporation, priority 1991, dated 2002).
